# From PubChem BioAssay (NCI)
#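 Growth conditions: 96-well plates. Treatment: test compound, 48 hours, 5 concentrations. Analysis: linear interpolation between bracketing concentrations; unreached endpoints set to highest concentration. At the GI50, growth is halved. TGI: total growth inhibition.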
# Key:
# Assay in all cases: NCI anticancer screen, dose series, 48 h
# COLO 205 colon = test system: COLO 205 colon
# PC-3 prostate = test system: PC-3 prostate
# OVCAR-3 ovarian = test system: OVCAR-3 ovarian
# HOP-62 NSCLC = test system: HOP-62 NSCLC
# BT-549 breast = test system: BT-549 breast
# U251 CNS = test system: U251 CNS
# SF-295 CNS = test system: SF-295 CNS
# CAKI-1 renal = test system: CAKI-1 renal
# HCT-116 colon = test system: HCT-116 colon
# IGROV1 ovarian = test system: IGROV1 ovarian
# MDA-MB-435 = test system: MDA-MB-435
# 786-0 renal = test system: 786-0 renal
# HOP-92 NSCLC = test system: HOP-92 NSCLC
# SF-268 CNS = test system: SF-268 CNS
# NCI-H522 lung = test system: NCI-H522 lung
# NCI/ADR-RES ovarian = test system: NCI/ADR-RES ovarian
# MCF7 breast = test system: MCF7 breast
# K-562 leukemia = test system: K-562 leukemia
# UO-31 renal = test system: UO-31 renal
# OVCAR-5 ovarian = test system: OVCAR-5 ovarian
# CCRF-CEM leukemia = test system: CCRF-CEM leukemia
# UACC-62 melanoma = test system: UACC-62 melanoma
# MOLT-4 leukemia = test system: MOLT-4 leukemia
# EKVX NSCLC = test system: EKVX NSCLC
# SR leukemia = test system: SR leukemia
# HCC-2998 colon = test system: HCC-2998 colon
# HT29 colon = test system: HT29 colon
# DU-145 prostate = test system: DU-145 prostate
# A549 NSCLC = test system: A549 NSCLC
# OVCAR-4 ovarian = test system: OVCAR-4 ovarian
# SK-MEL-28 melanoma = test system: SK-MEL-28 melanoma
# RPMI-8226 leukemia = test system: RPMI-8226 leukemia
# NCI-H460 lung = test system: NCI-H460 lung
# A498 renal = test system: A498 renal
# ACHN renal = test system: ACHN renal
# MDA-MB-231 breast = test system: MDA-MB-231 breast
# MALME-3M melanoma = test system: MALME-3M melanoma
# NCI-H226 lung = test system: NCI-H226 lung
# KM12 colon = test system: KM12 colon
# UACC-257 melanoma = test system: UACC-257 melanoma
# OVCAR-8 ovarian = test system: OVCAR-8 ovarian
# SK-MEL-2 melanoma = test system: SK-MEL-2 melanoma
# SNB-75 CNS = test system: SNB-75 CNS
# RXF 393 renal = test system: RXF 393 renal
# SN12C renal = test system: SN12C renal
# SF-539 CNS = test system: SF-539 CNS
# NCI-H23 lung = test system: NCI-H23 lung
# M14 melanoma = test system: M14 melanoma
# LOX IMVI melanoma = test system: LOX IMVI melanoma
# SNB-19 CNS = test system: SNB-19 CNS
# HL-60(TB) leukemia = test system: HL-60(TB) leukemia
# TK-10 renal = test system: TK-10 renal
# HS 578T breast = test system: HS 578T breast
# SK-MEL-5 melanoma = test system: SK-MEL-5 melanoma
# HCT-15 colon = test system: HCT-15 colon
# SK-OV-3 ovarian = test system: SK-OV-3 ovarian
# SW-620 colon = test system: SW-620 colon
smiles,measurement,setting,value
O=S(=O)(Nc1cccc2ccccc12)c1ccc(-c2cnc(C3CC3)o2)cc1,GI50,COLO 205 colon,99 nM
same,TGI,COLO 205 colon,1350 nM
same,GI50,PC-3 prostate,47.4 nM
same,TGI,PC-3 prostate,> 59.9 µM
same,GI50,OVCAR-3 ovarian,42.5 nM
same,TGI,OVCAR-3 ovarian,15.7 µM
same,GI50,HOP-62 NSCLC,99.5 nM
same,TGI,HOP-62 NSCLC,> 89.7 µM
same,GI50,BT-549 breast,4.2 µM
same,TGI,BT-549 breast,34.8 µM
same,GI50,U251 CNS,74.5 nM
same,TGI,U251 CNS,97.1 µM
same,GI50,SF-295 CNS,40.1 nM
same,TGI,SF-295 CNS,15.6 µM
same,GI50,CAKI-1 renal,46.3 nM
same,TGI,CAKI-1 renal,> 81.7 µM
same,GI50,HCT-116 colon,47.3 nM
same,TGI,HCT-116 colon,> 74.5 µM
same,GI50,IGROV1 ovarian,62.6 nM
same,TGI,IGROV1 ovarian,> 100 µM
same,GI50,MDA-MB-435,24.3 nM
same,TGI,MDA-MB-435,85.4 nM
same,GI50,786-0 renal,71.2 nM
same,TGI,786-0 renal,> 82.9 µM
same,GI50,HOP-92 NSCLC,< 19.3 nM
same,TGI,HOP-92 NSCLC,4.79 µM
same,GI50,SF-268 CNS,716 nM
same,TGI,SF-268 CNS,> 100 µM
same,GI50,NCI-H522 lung,61.2 nM
same,TGI,NCI-H522 lung,24 µM
same,GI50,NCI/ADR-RES ovarian,45.5 nM
same,TGI,NCI/ADR-RES ovarian,16.7 µM
same,GI50,MCF7 breast,32.9 nM
same,TGI,MCF7 breast,> 57.7 µM
same,GI50,K-562 leukemia,41.7 nM
same,TGI,K-562 leukemia,> 73.2 µM
same,GI50,UO-31 renal,74.5 nM
same,TGI,UO-31 renal,> 59.2 µM
same,GI50,OVCAR-5 ovarian,450 nM
same,TGI,OVCAR-5 ovarian,> 100 µM
same,GI50,CCRF-CEM leukemia,41.2 nM
same,TGI,CCRF-CEM leukemia,> 100 µM
same,GI50,UACC-62 melanoma,40.2 nM
same,TGI,UACC-62 melanoma,23.5 µM
same,GI50,MOLT-4 leukemia,101 nM
same,TGI,MOLT-4 leukemia,> 49.4 µM
same,GI50,EKVX NSCLC,276 nM
same,TGI,EKVX NSCLC,> 91.4 µM
same,GI50,SR leukemia,40.2 nM
same,TGI,SR leukemia,> 34.3 µM
same,GI50,HCC-2998 colon,220 nM
same,TGI,HCC-2998 colon,23.9 µM
same,GI50,HT29 colon,48.4 nM
same,TGI,HT29 colon,> 68.9 µM
same,GI50,DU-145 prostate,144 nM
same,TGI,DU-145 prostate,> 100 µM
same,GI50,A549 NSCLC,141 nM
same,TGI,A549 NSCLC,> 100 µM
same,GI50,OVCAR-4 ovarian,88 nM
same,TGI,OVCAR-4 ovarian,> 100 µM
same,GI50,SK-MEL-28 melanoma,3.44 µM
same,TGI,SK-MEL-28 melanoma,> 100 µM
same,GI50,RPMI-8226 leukemia,53.6 nM
same,TGI,RPMI-8226 leukemia,20 µM
same,GI50,NCI-H460 lung,43.5 nM
same,TGI,NCI-H460 lung,12.6 µM
same,GI50,A498 renal,33.4 nM
same,TGI,A498 renal,500 nM
same,GI50,ACHN renal,68.4 nM
same,TGI,ACHN renal,> 100 µM
same,GI50,MDA-MB-231 breast,389 nM
same,TGI,MDA-MB-231 breast,> 48.7 µM
same,GI50,MALME-3M melanoma,12.1 µM
same,TGI,MALME-3M melanoma,67.3 µM
same,GI50,NCI-H226 lung,106 nM
same,TGI,NCI-H226 lung,30.6 µM
same,GI50,KM12 colon,49.8 nM
same,TGI,KM12 colon,14.9 µM
same,GI50,UACC-257 melanoma,5.94 µM
same,TGI,UACC-257 melanoma,45.7 µM
same,GI50,OVCAR-8 ovarian,347 nM
same,TGI,OVCAR-8 ovarian,> 100 µM
same,GI50,SK-MEL-2 melanoma,2420 nM
same,TGI,SK-MEL-2 melanoma,56.5 µM
same,GI50,SNB-75 CNS,30.1 nM
same,TGI,SNB-75 CNS,82.5 µM
same,GI50,RXF 393 renal,23.7 nM
same,TGI,RXF 393 renal,141 nM
same,GI50,SN12C renal,508 nM
same,TGI,SN12C renal,> 64.6 µM
same,GI50,SF-539 CNS,42.3 nM
same,TGI,SF-539 CNS,2070 nM
same,GI50,NCI-H23 lung,186 nM
same,TGI,NCI-H23 lung,31.5 µM
same,GI50,M14 melanoma,76.4 nM
same,TGI,M14 melanoma,> 48.5 µM
same,GI50,LOX IMVI melanoma,48.8 nM
same,TGI,LOX IMVI melanoma,26 µM
same,GI50,SNB-19 CNS,63 nM
same,TGI,SNB-19 CNS,> 100 µM
same,GI50,HL-60(TB) leukemia,30.1 nM
same,TGI,HL-60(TB) leukemia,388 nM
same,GI50,TK-10 renal,19.7 µM
same,TGI,TK-10 renal,> 100 µM
same,GI50,HS 578T breast,56.3 nM
same,TGI,HS 578T breast,> 76.1 µM
same,GI50,SK-MEL-5 melanoma,56.8 nM
same,TGI,SK-MEL-5 melanoma,3.41 µM
same,GI50,HCT-15 colon,50.5 nM
same,TGI,HCT-15 colon,> 42 µM
same,GI50,SK-OV-3 ovarian,2190 nM
same,TGI,SK-OV-3 ovarian,> 85.8 µM
same,GI50,SW-620 colon,48.9 nM
same,TGI,SW-620 colon,> 100 µM
